Results: US7517989B2, “Piperidine derivatives useful as modulators of chemokine receptor activity” (AstraZeneca AB, priority 2002, dated 2009)

What follows are compounds tested on Human eosinophils (assay: Human eosinophil chemotaxis). Conditions: compound concentration not given.
Type: cell-based
Procedure: Human Eosinophil Chemotaxis
Human eosinophils were isolated from EDTA anticoagulated peripheral blood as previously described (Hansel et al., J. Immunol. Methods, 1991, 145, 105-110). The cells were resuspended at 10×10^6 ml^−1 in RPMI containing 200 IU/ml penicillin, 200 μg/ml streptomycin sulphate and supplemented with 10% HIFCS, at room temperature.
Eosinophils (700 μl) were pre-incubated for 15 mins at 37° C. with 7 μl of either vehicle or compound (100× required final concentration in 10% DMSO). The chemotaxis plate (ChemoTx, 3 μm pore, Neuroprobe) was loaded by adding 28 μl of a concentration of eotaxin (0.1 to 100 nM) containing a concentration of a compound according to the Examples or solvent to the lower wells of the chemotaxis plate. The filter was then placed over the wells and 25 μl of eosinophil suspension were added to the top of the filter. The plate was incubated for 1 hr at 37° C. in a humidified incubator with a 95% air/5% CO2 atmosphere to allow chemotaxis.
The medium, containing cells that had not migrated, was carefully aspirated from above the filter and discarded. The filter was washed once with phosphate buffered saline (PBS) containing 5 mM EDTA to remove any adherent cells. […] The number of eosinophils migrating was quantified according to the method of Strath et al., J. Immunol. […]
For `O=C(O)C(c1ccccc1)N1CCCC(CN2CCC(Oc3ccc(Cl)c(Cl)c3)CC2)C1` (single isomer, unassigned) [Example 5, 3-[[4-(3,4-dichlorophenoxy)-1-piperidinyl]methyl]-alpha-phenyl-1-piperidineacetic acid], the “% Inhibition (3 nM Human Eotaxin)” value was 96.9%. `O=C(O)[C@@H](c1ccccc1)N1CCO[C@H](CN2CCC(Oc3ccc(Cl)c(Cl)c3)CC2)C1` [Example 2, (α^4R,2R)-2-[[4-(3,4-dichlorophenoxy)-1-piperidinyl]methyl]-α-phenylmorpholineacetic acid] was tested, and the “% Inhibition (3 nM Human Eotaxin)” value was 96.4%.

These compounds were tested against T1, human H1 receptor (Homo sapiens, UniProt P35367) (assay: Histamine H1 receptor binding, [3H]-pyrilamine displacement). Conditions: 1 nM [3H]-pyrilamine; membranes of recombinant CHO-1 cells expressing human H1 receptor; read-out: H1 antagonism pKi (converted).
T1 construct: purchased Euroscreen SA, Brussels, Belgium ES-390-M; host or cells: recombinant CHO-1 cells (membranes)
T1 sequence (P35367 whole entry): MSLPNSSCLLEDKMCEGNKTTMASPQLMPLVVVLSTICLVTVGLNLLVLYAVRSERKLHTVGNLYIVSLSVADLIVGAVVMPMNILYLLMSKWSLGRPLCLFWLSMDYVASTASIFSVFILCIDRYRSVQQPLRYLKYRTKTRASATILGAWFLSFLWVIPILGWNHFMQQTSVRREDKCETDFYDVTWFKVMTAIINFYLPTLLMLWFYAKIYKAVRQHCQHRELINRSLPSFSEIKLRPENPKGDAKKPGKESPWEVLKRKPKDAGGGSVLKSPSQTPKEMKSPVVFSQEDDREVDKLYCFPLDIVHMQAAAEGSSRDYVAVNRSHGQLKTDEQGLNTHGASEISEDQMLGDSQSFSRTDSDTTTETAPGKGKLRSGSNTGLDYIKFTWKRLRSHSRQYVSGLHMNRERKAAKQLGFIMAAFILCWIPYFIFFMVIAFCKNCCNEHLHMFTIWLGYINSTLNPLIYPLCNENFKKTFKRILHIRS
In the case of `Cc1cc(Cl)ccc1OC1CCN(CC2CN(C(C(=O)O)c3ccccc3)CCO2)CC1` (single isomer, unassigned) [Example 7], the Ki is reported as 631 nM. `Cc1cc(Cl)ccc1OC1CCN(CC2CN(C(C(=O)O)c3ccccc3)CCO2)CC1` (single isomer, unassigned) [Example 8] was tested, and the Ki was 126 nM. Work on `Cc1c(Cl)ccc(OC2CCN(CC3CN(C(C(=O)O)c4ccccc4)CCO3)CC2)c1Cl` (single isomer, unassigned) [Example 9] yielded a Ki of 316 nM. For `Cc1c(Cl)ccc(OC2CCN(CC3CN(C(C(=O)O)c4ccccc4)CCO3)CC2)c1Cl` (single isomer, unassigned) [Example 10], the Ki was 794 nM. `Cc1c(Cl)ccc(OC2CCN(CC3CN(C(C(=O)O)c4ccccc4)CCO3)CC2)c1Cl` (single isomer, unassigned) [Example 11] gave a Ki of 251 nM. Compound `Cc1c(Cl)ccc(OC2CCN(CC3CN(C(C(=O)O)c4ccccc4)CCO3)CC2)c1Cl` (single isomer, unassigned) [Example 12] has a Ki of 31.6 nM. Work on `O=C(O)c1ccccc1CN1CCO[C@H](CN2CCC(Oc3ccc(Cl)c(Cl)c3)CC2)C1` [Example 13, 2-[[(2R)-2-[[4-(3,4-dichlorophenoxy)-1-piperidinyl]methyl]-4-morpholinyl]methyl]-benzoic acid] yielded a Ki of 31.6 nM. `O=C(O)c1ccccc1N1CCO[C@H](CN2CCC(Oc3ccc(Cl)c(Cl)c3)CC2)C1` [Example 15, 2-[(2R)-2-[[4-(3,4-dichlorophenoxy)-1-piperidinyl]methyl]-4-morpholinyl]-benzoic acid] gave a Ki of 25.1 nM.
